The source of these data is ChEMBL document CHEMBL5154936, “Scaffold Hopping Strategy to Identify Prostanoid EP4 Receptor Antagonists for Cancer Immunotherapy” (J Med Chem, 2022).

For one data set, the target named is T1, CYP2B6 (Homo sapiens, UniProt P20813).
T1 sequence (P20813 whole entry): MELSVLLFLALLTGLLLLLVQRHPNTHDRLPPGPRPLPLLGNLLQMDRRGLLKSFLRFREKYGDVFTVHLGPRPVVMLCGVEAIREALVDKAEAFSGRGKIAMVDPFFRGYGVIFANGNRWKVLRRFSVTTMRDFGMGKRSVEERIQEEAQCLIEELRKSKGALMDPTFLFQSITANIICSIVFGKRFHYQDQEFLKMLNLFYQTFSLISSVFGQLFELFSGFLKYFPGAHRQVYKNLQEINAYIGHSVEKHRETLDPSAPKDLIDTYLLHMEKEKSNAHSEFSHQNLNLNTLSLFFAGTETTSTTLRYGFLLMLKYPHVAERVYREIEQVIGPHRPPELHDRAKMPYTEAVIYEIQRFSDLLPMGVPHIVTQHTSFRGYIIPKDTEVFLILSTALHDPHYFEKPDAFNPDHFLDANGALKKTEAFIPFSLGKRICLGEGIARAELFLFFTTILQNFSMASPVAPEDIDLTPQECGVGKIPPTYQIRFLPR
Briefly: Inhibition of CYP2B6 (unknown origin) at 20 uM. It is filed as ADME.

In the next data set the target is CYP2D6 (Homo sapiens, UniProt P10635). The experiment in a line: Inhibition of CYP2D6 (unknown origin) at 20 uM. It is filed as ADME.
Chain of CYP2D6 (P10635 whole entry): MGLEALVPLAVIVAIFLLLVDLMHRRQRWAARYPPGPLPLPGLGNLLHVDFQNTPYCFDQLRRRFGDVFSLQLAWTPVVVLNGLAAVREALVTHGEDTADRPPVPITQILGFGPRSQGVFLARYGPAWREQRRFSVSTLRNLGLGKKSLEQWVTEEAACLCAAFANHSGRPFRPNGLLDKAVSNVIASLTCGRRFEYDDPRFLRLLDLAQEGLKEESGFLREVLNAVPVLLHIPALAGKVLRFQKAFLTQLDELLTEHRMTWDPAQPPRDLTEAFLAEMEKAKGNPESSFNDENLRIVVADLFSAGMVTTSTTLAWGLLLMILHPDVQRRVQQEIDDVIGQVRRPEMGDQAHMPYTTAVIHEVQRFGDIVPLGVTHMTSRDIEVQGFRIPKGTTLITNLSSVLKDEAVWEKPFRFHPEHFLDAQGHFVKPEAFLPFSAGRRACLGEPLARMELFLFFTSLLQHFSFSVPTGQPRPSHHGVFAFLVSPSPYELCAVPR
Data set [1] can be described thus: Metabolic stability in mouse liver microsomes assessed as intrinsic clearance. In kind it is ADME, Microsome. The note with it: read-out: CLH.
The nature of data set [2]: Metabolic stability in mouse liver microsomes assessed as half life. In kind it is ADME, Microsome.
Another data set concerns the target T2, CYP1A2 (Homo sapiens, UniProt P05177).
T2 sequence (P05177 whole entry): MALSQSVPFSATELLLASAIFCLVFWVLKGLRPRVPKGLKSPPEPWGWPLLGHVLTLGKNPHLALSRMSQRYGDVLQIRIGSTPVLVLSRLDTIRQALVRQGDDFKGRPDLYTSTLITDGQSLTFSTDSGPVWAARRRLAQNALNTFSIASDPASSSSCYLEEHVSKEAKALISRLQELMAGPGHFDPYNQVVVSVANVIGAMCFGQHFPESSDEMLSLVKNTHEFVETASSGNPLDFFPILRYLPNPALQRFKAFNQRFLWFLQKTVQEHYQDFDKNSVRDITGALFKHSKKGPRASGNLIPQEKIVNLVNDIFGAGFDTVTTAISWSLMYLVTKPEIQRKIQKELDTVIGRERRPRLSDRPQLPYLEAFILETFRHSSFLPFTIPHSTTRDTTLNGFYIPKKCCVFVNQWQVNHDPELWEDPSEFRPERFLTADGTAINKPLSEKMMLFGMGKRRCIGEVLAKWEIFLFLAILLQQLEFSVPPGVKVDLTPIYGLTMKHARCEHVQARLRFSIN
Briefly: Inhibition of CYP1A2 (unknown origin) at 20 uM. It is filed as ADME.

The next data set relates to EMT6. Briefly: Cytotoxicity against mouse EMT6 cells assessed as reduction in cell viability incubated for 72 hrs by CCK-8 assay. The note with it: EMT6, 72 h. For orientation: Tetrazolium dyes change colour on reduction, which living cells bring about.
Another data set has as its target CYP2C9 (Homo sapiens, UniProt P11712). The experiment in a line: Inhibition of CYP2C9 (unknown origin) at 20 uM. In kind it is ADME.
Data set [3] can be described thus: Metabolic stability in mouse liver microsomes assessed as parent compound remaining at 10 uM measured after 60 mins. It is filed as ADME, Microsome. The note with it: read-out: Stability. On the technique in general: Liver microsomes are vesicles of endoplasmic reticulum, rich in cytochrome P450 enzymes.
In data set [4] the target is Prostaglandin E2 receptor EP2 subtype (Homo sapiens, UniProt P43116). The experiment in a line: Antagonist activity at human EP2 receptor transfected in CHO/Galpha16 cells preincubated for 15 mins followed by PGE2 addition by calcium flux assay. It is filed as functional, cell-based. A general note: A change in cytosolic calcium serves as a functional read-out for many receptors and channels.
Chain of Prostaglandin E2 receptor EP2 subtype (P43116 whole entry): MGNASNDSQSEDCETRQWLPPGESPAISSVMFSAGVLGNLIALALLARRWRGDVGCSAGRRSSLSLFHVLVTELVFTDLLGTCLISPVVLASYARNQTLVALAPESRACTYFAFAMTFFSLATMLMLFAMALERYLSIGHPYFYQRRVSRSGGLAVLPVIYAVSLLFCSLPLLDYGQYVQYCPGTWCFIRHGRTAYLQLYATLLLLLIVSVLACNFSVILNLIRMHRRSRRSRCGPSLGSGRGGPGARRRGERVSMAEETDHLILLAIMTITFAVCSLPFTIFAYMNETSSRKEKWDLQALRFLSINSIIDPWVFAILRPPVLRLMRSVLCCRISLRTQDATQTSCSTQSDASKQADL

A short description of data set [5]: Metabolic stability in human liver microsomes assessed as parent compound remaining at 10 uM measured after 60 mins. In kind it is ADME, Microsome. The note with it: read-out: Stability.
Data set [6] can be described thus: Metabolic stability in human liver microsomes assessed as half life. It is filed as ADME, Microsome.
Data set [7] can be described thus: Cytotoxicity against HEK293 cells assessed as reduction in cell viability incubated for 72 hrs by CCK-8 assay. In kind it is toxicity, cell-based. The note with it: human.
For the next data set, the target named is CYP2E1 (Homo sapiens, UniProt P05181). The experiment in a line: Inhibition of CYP2E1 (unknown origin) at 20 uM. In kind it is ADME.
Chain of CYP2E1 (P05181 whole entry): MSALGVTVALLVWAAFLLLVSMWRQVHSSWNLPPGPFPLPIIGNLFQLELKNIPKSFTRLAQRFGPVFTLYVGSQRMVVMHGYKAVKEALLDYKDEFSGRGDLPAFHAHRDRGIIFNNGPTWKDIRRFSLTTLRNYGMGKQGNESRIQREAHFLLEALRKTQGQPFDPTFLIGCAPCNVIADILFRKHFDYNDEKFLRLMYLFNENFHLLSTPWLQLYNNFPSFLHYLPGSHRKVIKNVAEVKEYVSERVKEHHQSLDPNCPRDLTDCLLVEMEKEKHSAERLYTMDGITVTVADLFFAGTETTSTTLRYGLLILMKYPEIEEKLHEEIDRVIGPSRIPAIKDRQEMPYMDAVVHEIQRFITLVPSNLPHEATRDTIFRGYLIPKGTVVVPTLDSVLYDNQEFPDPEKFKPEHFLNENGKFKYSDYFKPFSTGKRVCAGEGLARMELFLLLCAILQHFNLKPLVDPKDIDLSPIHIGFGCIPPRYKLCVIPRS
The nature of data set [8]: Metabolic stability in human liver microsomes assessed as intrinsic clearance. In kind it is ADME, Microsome. Conditions: read-out: CLH.
A further data set relates to 3LL cell line. Briefly: Cytotoxicity against mouse 3LL cells assessed as reduction in cell viability incubated for 72 hrs by CCK-8 assay.
Data set [9] addresses Prostaglandin E2 receptor EP4 subtype (Homo sapiens, UniProt P35408). The experiment in a line: Antagonist activity at human EP4 receptor transfected in CHO/Galpha16 cells preincubated for 15 mins followed by PGE2 addition by calcium flux assay. In kind it is functional, cell-based.
Data set [10] has as its system CT26. Briefly: Cytotoxicity against mouse CT26 cells assessed as reduction in cell viability incubated for 72 hrs by CCK-8 assay. The note with it: CT26, 72 h.
The target of data set [11] is Prostaglandin E2 receptor EP4 subtype (Mus musculus, UniProt P32240). The experiment in a line: Antagonist activity at mouse EP4 receptor transfected in CHO/Galpha16 cells preincubated for 15 mins followed by PGE2 addition by calcium flux assay. It is filed as functional, cell-based.
Chain of Prostaglandin E2 receptor EP4 subtype (Mus musculus, UniProt P32240) (P32240 whole entry): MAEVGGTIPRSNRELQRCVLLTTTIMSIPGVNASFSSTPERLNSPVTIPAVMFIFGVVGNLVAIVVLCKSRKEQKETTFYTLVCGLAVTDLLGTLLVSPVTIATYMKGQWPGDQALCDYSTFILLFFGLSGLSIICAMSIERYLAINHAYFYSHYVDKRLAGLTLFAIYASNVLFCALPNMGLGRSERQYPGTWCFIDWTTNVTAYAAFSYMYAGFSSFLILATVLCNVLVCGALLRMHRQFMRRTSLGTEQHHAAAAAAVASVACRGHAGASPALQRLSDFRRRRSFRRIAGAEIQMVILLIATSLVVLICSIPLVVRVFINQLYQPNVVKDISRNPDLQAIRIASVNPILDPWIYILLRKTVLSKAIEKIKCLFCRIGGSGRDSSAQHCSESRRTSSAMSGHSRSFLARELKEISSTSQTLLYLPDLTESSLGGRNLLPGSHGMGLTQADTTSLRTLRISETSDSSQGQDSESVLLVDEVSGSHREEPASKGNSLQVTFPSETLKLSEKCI
Data set [12] concerns the target T3, Prostaglandin E2 receptor EP3 subtype (Homo sapiens, UniProt P43115).
T3 sequence (P43115 whole entry): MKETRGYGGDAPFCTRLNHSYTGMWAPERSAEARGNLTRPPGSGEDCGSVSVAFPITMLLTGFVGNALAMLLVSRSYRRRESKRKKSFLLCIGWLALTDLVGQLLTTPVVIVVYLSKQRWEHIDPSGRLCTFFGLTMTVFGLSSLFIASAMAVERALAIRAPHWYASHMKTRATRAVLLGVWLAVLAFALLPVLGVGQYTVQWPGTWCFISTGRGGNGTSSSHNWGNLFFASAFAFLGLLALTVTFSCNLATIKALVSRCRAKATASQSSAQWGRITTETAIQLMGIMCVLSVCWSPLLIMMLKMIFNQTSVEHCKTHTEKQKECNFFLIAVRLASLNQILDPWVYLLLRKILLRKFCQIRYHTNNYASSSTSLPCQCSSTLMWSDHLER
The experiment in a line: Antagonist activity at human EP3 receptor transfected in CHO/Galpha16 cells preincubated for 15 mins followed by PGE2 addition by calcium flux assay. It is filed as functional, cell-based.

Data set [13] concerns the target T4, Prostaglandin E2 receptor EP1 subtype (Homo sapiens, UniProt P34995).
T4 sequence (P34995 whole entry): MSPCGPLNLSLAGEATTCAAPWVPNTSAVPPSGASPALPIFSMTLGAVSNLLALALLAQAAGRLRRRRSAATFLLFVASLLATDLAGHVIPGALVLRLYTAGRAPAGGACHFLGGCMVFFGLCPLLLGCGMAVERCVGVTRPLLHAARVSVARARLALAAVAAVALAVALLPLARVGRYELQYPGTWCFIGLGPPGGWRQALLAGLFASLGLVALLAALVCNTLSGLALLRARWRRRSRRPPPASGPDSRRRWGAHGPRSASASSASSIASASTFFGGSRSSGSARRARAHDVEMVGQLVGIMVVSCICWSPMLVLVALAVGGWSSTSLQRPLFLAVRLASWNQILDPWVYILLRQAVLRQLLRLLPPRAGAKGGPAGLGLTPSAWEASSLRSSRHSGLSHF
Briefly: Antagonist activity at human EP1 receptor transfected in CHO/Galpha16 cells preincubated for 15 mins followed by PGE2 addition by calcium flux assay. It is filed as functional, cell-based.

For a further data set, the system named is Panc02. The experiment in a line: Cytotoxicity against mouse Panc02 cells assessed as reduction in cell viability incubated for 72 hrs by CCK-8 assay. Conditions: Panc02, 72 h.
Data set [14] deals with CT26. Briefly: Antitumor activity against mouse CT26 cells allografted in BALB/c mouse assessed as tumor growth inhibition at 75 mg/kg, po administered once a day for 14 days. Conditions: CT26, 336 h, time 14 day, read-out: TGI. It is filed as functional.

Bounds are passed on as bounds.

Chain of CYP2C9 (P11712 whole entry): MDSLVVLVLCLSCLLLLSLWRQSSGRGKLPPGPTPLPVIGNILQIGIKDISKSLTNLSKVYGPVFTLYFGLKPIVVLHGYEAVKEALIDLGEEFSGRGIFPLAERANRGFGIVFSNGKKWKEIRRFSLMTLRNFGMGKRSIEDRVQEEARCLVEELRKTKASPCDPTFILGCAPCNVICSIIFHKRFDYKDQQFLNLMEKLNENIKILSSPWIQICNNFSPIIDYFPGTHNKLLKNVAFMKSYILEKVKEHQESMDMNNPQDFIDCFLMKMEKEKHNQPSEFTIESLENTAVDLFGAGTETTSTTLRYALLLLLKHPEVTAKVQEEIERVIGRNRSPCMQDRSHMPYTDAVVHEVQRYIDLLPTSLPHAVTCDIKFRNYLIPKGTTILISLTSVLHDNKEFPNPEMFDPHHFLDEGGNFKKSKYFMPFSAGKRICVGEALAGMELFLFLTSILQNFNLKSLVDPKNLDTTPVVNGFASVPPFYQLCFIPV
Chain of Prostaglandin E2 receptor EP4 subtype (Homo sapiens, UniProt P35408) (P35408 whole entry): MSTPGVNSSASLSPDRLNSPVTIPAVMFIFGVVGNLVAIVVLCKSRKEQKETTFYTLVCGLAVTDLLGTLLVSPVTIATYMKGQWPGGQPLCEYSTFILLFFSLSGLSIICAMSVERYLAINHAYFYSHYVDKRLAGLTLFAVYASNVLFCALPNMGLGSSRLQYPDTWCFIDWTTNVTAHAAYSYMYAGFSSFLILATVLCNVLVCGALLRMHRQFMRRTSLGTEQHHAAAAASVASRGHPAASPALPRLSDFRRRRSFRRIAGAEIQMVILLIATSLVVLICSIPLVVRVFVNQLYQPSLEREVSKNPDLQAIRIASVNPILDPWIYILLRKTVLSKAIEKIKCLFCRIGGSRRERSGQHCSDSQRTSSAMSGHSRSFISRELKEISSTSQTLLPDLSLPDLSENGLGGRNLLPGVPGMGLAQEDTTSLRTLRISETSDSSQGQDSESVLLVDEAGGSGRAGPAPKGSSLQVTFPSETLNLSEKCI

Broadly, the inhibition is the percentage by which the read-out fell short of the control. A lower inhibition goes with little suppression. Broadly, the half-life is the time needed for the level to fall by half in the phase considered. Usually IC50 stands for the concentration needed to halve the response being measured. Turning to `C[C@H](NC(=O)c1c(Cc2ccc(C(F)(F)F)cc2)sc2c1CCOC2)c1ccc(C(=O)O)cc1`, the inhibition at 20 µM against CYP2B6 came out at 68%; against CYP2D6, 62%; against CYP1A2, 69%; against CYP2C9, 24%; at CYP2E1 it was 26%. Further, the microsomal CLint in [1] and in data set [8] was less than 9.6 µL/min/mg throughout. The half-life in data set [2] and in data set [6] was more than 2.42 h each time. Besides, the IC50 is more than 100 µM in the data set with EMT6; more than 10 µM in data set [4]; more than 100 µM in the data set with 3LL cell line; 0.0021 µM in [9]; more than 100 µM in the data set with CT26 [10]; 0.336 µM in data set [11]. The IC50 is more than 10 µM in data set [12], more than 10 µM in data set [13] and more than 100 µM in the data set with Panc02. Moreover, the remaining at 1 h, 10 µM in [3] was found to be 87.9%; in data set [5], 90%. Also, the IC50 at 72 h in [7] was more than 100 µM.

Take `C[C@H](NC(=O)c1c(C(F)F)nn(C)c1Oc1cccc(C(F)(F)F)c1)c1ccc(C(=O)O)cc1` [PALUPIPRANT]: the inhibition at 20 µM against CYP2B6 came out at 77%; against CYP2D6, 65%; at CYP1A2, 59%; on CYP2C9 it was 33%; against CYP2E1, 21%. In addition, in the data set with CT26 [14], the inhibition in vivo at 75 mg/kg came out at 39.9%. Besides, the microsomal CLint in [1] and in data set [8] was less than 9.6 µL/min/mg in each case. The half-life in [2] and in data set [6] was more than 2.42 h in each case. The results for the remaining at 1 h, 10 µM in data set [3] and in data set [5] were 95.7% and 83.6%, respectively. Further, in [7], the IC50 at 72 h is more than 100 µM. In addition, the IC50 in data set [11] is 0.101 µM.
